According to patent publication US20160228387A1, “SOLUBILIZED FORMULATION OF COQ10 FOR USE IN TREATMENT OF PARKINSON'S DISEASE” (NATIONAL RESEARCH COUNCIL OF CANADA (NRC), priority 2013, published 2016):
Where “and” joins values, the source holds several entries; their conditions need not be identical. Equal entries are not always repeated.

Assays:
[1] = vitamin E alone; cited from earlier work
[2] = tested on: TH-positive neurons in SNpc; assay: MPTP-induced neurodegeneration in mice: stereological count of TH-positive neurons in SNpc
Experimental: (§1) To induce the dopaminergic neurodegeneration, male C57BL/6 mice were acclimatized to the new environment for 7 days before the start of the experiment. Animals were randomly divided into experimental groups and given 5 daily injections of MPTP (25 mg/kg/injection). Control mice were injected with saline. On days 5, 8, 14, 28, and 45 after the MPTP injections, mice were sacrificed and brain tissue was collected for immunohistochemistry, stereology, and biochemical analyses. Brains were fixed and immunostained with rabbit polyclonal anti-tyrosine hydroxylase antibody (brown) and counterstained with cresyl violet (blue) for anatomic reference. TH-positive cells were counted using an unbiased stereology method and cell survival was plotted as percentage of control.
Mice were acclimatized for 7 days before the start of the experiment and were randomly divided into 3 experimental groups (I-III). Groups I and II were given regular water throughout the duration of the experiment. […] Groups II and III received 5 daily intraperitoneal injections of MPTP (25 mg/kg/injection) whereas, group I was injected with saline. At the conclusion of the experiment on D28, all animals were sacrificed and brain tissue was collected for immunohistochemistry, sterology, and Western blot.
Mice were acclimatized to the new environment for 7 days before the start of the experiment and were randomly divided into 3 experimental groups (I-III). Control group I was injected with saline and groups II and III received 5 daily MPTP injections (25 mg/kg/injection). […] The supplementation continued until the conclusion of the experiment on D28.
At the conclusion of the experiment on day 28 (D28), all mice were sacrificed and brains were collected for immunohistochemistry and stereology. Brains were fixed and immunostained with rabbit polyclonal anti-tyrosine hydroxylase antibody (brown) and counterstained with cresyl violet (blue) for anatomic reference. Images were captured on an Olympus microscope equipped with Microcast 3CCD 1080p HD color camera system.
(§2) Mice were acclimatized for 7 days before the start of the experiment and were randomly divided into 4 experimental groups (I-IV). Control group I was injected with saline and groups II-IV with MPTP (5×25 mg/kg). Mice in groups I and II were drinking regular water throughout the duration of the experiment. […] At the conclusion of the experiment (D28), all mice were sacrificed and brains were collected for immunohistochemistry, stereology, and biochemistry. Brains were fixed and immunostained with rabbit polyclonal anti-tyrosine hydroxylase antibody and counterstained with cresyl violet. Images were captured on an Olympus microscope equipped with Microcast 3CCD 1080p HD color camera.
Mice were acclimatized to the new environment and were randomly divided into 4 experimental groups (I, II, V, and VI).

striatal dopamine = assay: Striatal dopamine content in MPTP-treated mice
Experimental: as §1, §2

MPTP-treated mice = assay: Beam walk test (faults) in MPTP-treated mice; details: MPTP alone (group II), D10
Experimental: As an additional step, the beam walk test, described above, was used to assess motor skills. The handling and training of mice on the test apparatus were performed before the MPTP injections. Mice were acclimatized to the new environment for 7 days (D[-21]-D[-14]) before the handling (D[-14]-D[-7]) and training (D[-7]-D1). Animals were randomly divided into 3 experimental groups (I-III). […] Animals were allowed to cross a 5-mm square and a 100-cm long beam and the number of faults, as well as the time taken to walk the beam, were recorded.

rats exposed to PQ = assay: Horizontal beam-walking test (leg slips) in PQ-treated rats; assay type: in vivo, rat; details: PQ alone (PQ3), 1st test phase, p<0.05
Experimental: Deficiency in motor function is a hallmark of PD. Motor skills of the rats treated in Example 2 were assessed using the beam walk test. All rats were assessed for performance on a horizontal beam-walking test for motor skills/motor deficits as measured by leg slips. The aluminium beam was 1.68 metres in length, 2 centimetres in width and 0.75 metres from the ground. A mirror was placed behind the beam, measuring 1.78 metres in length and 0.3 metres in height. Four weeks after the last injection, rats underwent one trial per day for four consecutive days (one training trial and three test trials). Eight weeks after the last injection another three test trials were performed (one trial per day). In the training trial, rats ran down the beam to the holding cage on a flat platform three times, each time with different distances between the holding cage and starting position. The first position was a quarter of the beam length, the second was half, and the last was the entire distance of the beam. […]
Rats received a small slice of apple in the holding cage located on a table at the end of the beam. […] The test trials were recorded using a standard video camera, located 2 metres perpendicular to the beam. The number of hind leg slips made from either leg during each test trial was later noted from viewing the recorded video clips. […]

TH-positive neurons = assay: PQ-induced neurodegeneration in rats: stereological count of TH-positive neurons in midbrain sections; assay type: in vivo, Long Evans Hooded rats; details: for total number of TH positive neurons: mean ± SD
Experimental: Long Evans Hooded rats were given 5 intraperitoneal injections of PQ at a dose of 10 mg/kg body weight/injection dissolved in phosphate buffered saline (PBS), one injection every five days over a period of 20 days. Control rats received intraperitoneal injections of PBS alone. Brain tissue was examined immediately after the last PQ injection and, subsequently, 4 weeks and 8 weeks later. […] Fresh drinking solutions were provided every second day. At the conclusion of experimental treatments, rats were perfused with Tyrodes buffer containing heparin, the tissues were fixed with 10% formalin, and the brains extracted and stored in the 10% formalin until processing for immunohistochemistry. Animals were sacrificed at different time points for up to 8 weeks post-PQ exposure. Midbrain sections were prepared, immunostained with anti-tyrosine hydroxylase antibody and TH-positive neurons were counted using a stereologer in an unbiased manner.
The Ubisol-Q10 intervention was applied after the completion of PQ injections described above. By this time, neurodegenerative processes in the brain had already begun. […] This treatment began when nearly 18% of SN neurons were already lost (PQ1 group), but the question was whether the remaining vulnerable neurons could be saved. The midbrain sections were immunostained with anti-TH antibodies, and the stained neurons were counted using a stereologer in an unbiased manner.
There was also significant neuroprotection in the rats that received the Ubisol-Q10 supplemented drinking water for eight weeks post injections.

[3] = Dispersion and stability in water; assay type: physicochemical; details: added to water
Description: Based on the chemical structure, a-tocopherol constitutes 35.6% or one-third of the PTS molecule (Borowy-Borowski et al., 2004).

PD patients = details: clinical trials in humans; cited from earlier work

Cc1c(C)c2c(c(C)c1O)CC[C@@](C)(CCC[C@H](C)CCC[C@H](C)CCCC(C)C)O2 [vitamin E, α-tocopherol]
effect on neuroprotection [1]: did not have a significant effect

polyoxyethanyl-cholesteryl sebacate [PCS]
number of tyrosine hydroxylase-positive neurons, mean ([2]; in drinking water from 2 weeks before to 3 weeks after MPTP injections (Table 9; control = 100)): 58

CN1CC=C(c2ccccc2)CC1 [MPTP, 1-methyl-4-phenyl-1,2,3,6-tetrahydropyridine]
loss of TH-positive neurons ([2]; MPTP alone (5 x 25 mg/kg i.p.), day 28): 51.6% and 50%
number of tyrosine hydroxylase-positive neurons, mean ([2]; MPTP alone (Table 9; control = 100)): 66
surviving TH neurons (percentage of control) ([2]; MPTP alone, D28 (Table 5)): 50.3 ± 7.3%
survival of TH-positive neurons ([2]; MPTP alone, day 45): 50%
number of TH-positive neurons in SNpc ([2]; MPTP alone, regular water, D28 (Table 6)): 3281 ± 291 and 3320 ± 700
number of TH positive neurons in SNpc ([2]; MPTP alone, regular water, D56): 4192 ± 295
striatal dopamine level reduced to (striatal dopamine; MPTP alone (group II), by D28): 50%
striatal dopamine level (striatal dopamine; MPTP alone, D28 (Table 7)): 15.1 ± 2.2
decrease of striatal dopamine content (striatal dopamine; MPTP alone, by day 28): ~50%
number of faults on beam walk, average (MPTP-treated mice): ~7 faults

C[n+]1ccc(-c2cc[n+](C)cc2)cc1 [PQ, paraquat]
number of leg slips versus the other three groups (rats exposed to PQ): significantly greater
total number of TH positive neurons (TH-positive neurons; PQ alone (5 x 10 mg/kg i.p.), 0 weeks after last PQ injection (PQ1)): 8722 ± 3559
loss of DA (TH-positive) neurons versus control (TH-positive neurons; PQ alone, during the PQ injection period (PQ1)): ~18% and ~15%
total number of TH positive neurons (TH-positive neurons; PQ alone, regular water, 4 weeks after PQ injections (PQ2)): 6006 ± 1928 and 6227 ± 1682
total number of TH positive neurons (TH-positive neurons; PQ alone, regular water, 8 weeks after PQ injections (PQ3)): 5114 ± 1562 and 4661 ± 1097

COC1=C(OC)C(=O)C(CC=C(C)CCC=C(C)CCC=C(C)CCC=C(C)CCC=C(C)CCC=C(C)CCC=C(C)CCC=C(C)CCC=C(C)CCC=C(C)C)=C(C)C1=O [CoQ10, 2,3-dimethoxy, 5-methyl, 6-polyisoprene para-benzoquinone]
behaviour in water [3]: floats on the surface as insoluble material
clinical benefit against PD (PD patients): no clinical benefit
